Source: US20250204564A1, “TASTE MODIFYING COMPOSITIONS AND USES THEREOF” (Firmenich Incorporated, priority 2022, published 2025)

Tests used:
Assay type in all cases: in vivo
[1] = tested on: Bitterness of Potato Protein; experiment: Blinded paired taste comparison, bitterness of potato protein; conditions: sample S1: TM1 10 ppm + potato protein 4 wt % in water vs C, 39 panelists
Procedure: (§1) A test sample and a comparative sample were prepared. The comparative sample (C) contained potato protein in water at a concentration of 4 wt %. The test sample (S1) contained potato protein in water at a concentration of 4 wt % and TM1 at a concentration of 10 ppm. Sample pairs, a test sample and a comparative sample, were presented in a blinded fashion to panelists, they were asked to taste the samples and identify the sample with the highest bitterness.

[2] = tested on: Bitterness of Pea Protein; experiment: Blinded paired taste comparison, bitterness of pea protein; conditions: sample S1: TM1 10 ppm + pea protein 4 wt % in water vs C, 30 panelists
Procedure: as §1, with “pea” for “potato”

Bitterness of Coffee = experiment: Blinded paired taste comparison, bitterness of instant coffee; conditions: sample S1: TM1 10 ppm in instant coffee (Taster's Choice French Roast) vs C, 33 panelists
Procedure: A test sample and a comparative sample were prepared. The comparative sample (C) instant coffee (Taster's Choice French Roast, acquired in the United States) made according to the directions. The test sample (S1) consisted of instant coffee (Taster's Choice French Roast, acquired in the United States) made according to the directions and TM1 at a concentration of 10 ppm. Sample pairs, a test sample and a comparative sample, were presented in a blinded fashion to panelists, they were asked to taste the samples and identify the sample with the highest bitterness.

[3] = tested on: Bitterness of Grapefruit Juice; experiment: Blinded paired taste comparison, bitterness of grapefruit juice; conditions: 39 panelists
Procedure: as §1, with “consisted” for “contained potato protein in water at a concentration”, “grapefruit juice.” for “4 wt %.”, “grapefruit juice” for “4 wt %”

[4] = tested on: Bitterness of Acetaminophen; experiment: Blinded paired taste comparison, bitterness of acetaminophen; conditions: for C Chosen: panelists choosing comparative sample C as highest bitterness; for Test Sample Chosen: panelists choosing test sample as highest bitterness
Procedure: (§2) A series of test samples and a comparative sample were prepared. The comparative sample (C) contained acetaminophen in water at a concentration of 90 mM. Four test samples were prepared. Each test sample contained acetaminophen in water at a concentration of 90 mM. In addition, one test sample (S1) also contained TM1 at 100 ppm, another sample (S2) contained TM1 at 50 ppm, another sample (S3) contained TM1 at 25 ppm, and another sample (S4) contained TM1 at 10 ppm. Sample pairs, a test sample and a comparative sample, were presented in a blinded fashion to panelists, they were asked to taste the samples and identify the sample with the highest bitterness.

Bitterness of Caffeine = experiment: Blinded paired taste comparison, bitterness of caffeine; conditions: sample S1: TM1 10 ppm + caffeine 0.08 wt % in water vs C, 39 panelists
Procedure: as §1, with “caffeine” for “potato protein”, “0.08” for “4”

Bitterness of Ginseng = experiment: Blinded paired taste comparison, bitterness of ginseng; conditions: sample S1: TM1 10 ppm + ginseng 0.036 wt % in water vs C, 39 panelists
Procedure: as §1, with “ginseng” for “potato protein”, “0.036” for “4”

Bitterness of Green Tea = experiment: Blinded paired taste comparison, bitterness of green tea extract; conditions: 39 panelists; for C Chosen: panelists choosing comparative sample C as highest bitterness; for Test Sample Chosen: panelists choosing test sample as highest bitterness
Procedure: as §2, with “green tea extract” for “acetaminophen”, “0.30 wt %. Two” for “90 mM. Four”, “0.30 wt %.” for “90 mM.”, “20” for “100”, “ppm, and” for “ppm,”, “40” for “50 ppm, another sample (S3) contained TM1 at 25 ppm, and another sample (S4) contained TM1 at 10”

[5] = tested on: Bitterness of Guaifenesin; experiment: Blinded paired taste comparison, bitterness of guaifenesin; conditions: 39 panelists
Procedure: as §1, with “guaifenesin” for “potato protein”, “24 mM.” for “4 wt %.”, “24 mM” for “4 wt %”, “50” for “10”

Bitterness of Saccharin = experiment: Blinded paired taste comparison, bitterness of saccharin; conditions: sample S1: TM1 10 ppm + saccharin 1000 ppm in water vs C, 33 panelists
Procedure: as §1, with “saccharin” for “potato protein”, “1000 ppm.” for “4 wt %.”, “1000 ppm” for “4 wt %”

[6] = panelists choosing comparative sample C as highest bitterness
[7] = panelists choosing test sample as highest bitterness
[8] = sample S2: TM1 50 ppm + acetaminophen 90 mM in water vs C, 48 panelists
[9] = sample S3: TM1 25 ppm + acetaminophen 90 mM in water vs C, 45 panelists
[10] = sample S4: TM1 10 ppm + acetaminophen 90 mM in water vs C, 45 panelists
[11] = sample S1: TM1 20 ppm + green tea extract 0.30 wt % in water vs C
[12] = sample S2: TM1 40 ppm + green tea extract 0.30 wt % in water vs C

CC(=O)c1cc2c(cc1NC(=O)CN1CCN(C(C)=O)CC1)OCCO2 [TM1, N-(7-acetyl-2,3-dihydrobenzo[b][1,4]dioxin-6-yl)-2-(4-acetylpiperazin-1-yl)acetamide]
C Chosen [1, 6]: 26 | Test Sample Chosen [1, 7]: 13 | C Chosen [2, 6]: 20 | Test Sample Chosen [2, 7]: 10 | C Chosen (Bitterness of Coffee; [6]): 27 | Test Sample Chosen (Bitterness of Coffee; [7]): 6 | C Chosen ([3]; panelists choosing comparative sample C as highest bitterness, sample S1: TM1 10 ppm in grapefruit juice vs C): 26 | Test Sample Chosen ([3]; panelists choosing test sample as highest bitterness, sample S1: TM1 10 ppm in grapefruit juice vs C (grapefruit juice)): 13 | C Chosen ([4]; sample S1: TM1 100 ppm + acetaminophen 90 mM in water vs C, 31 panelists): 27 | C Chosen [4, 8]: 39 | C Chosen [4, 9]: 33 | C Chosen [4, 10]: 31 | Test Sample Chosen ([4]; sample S1: TM1 100 ppm + acetaminophen 90 mM in water vs C (acetaminophen 90 mM), 31 panelists): 4 | Test Sample Chosen [4, 8]: 9 | Test Sample Chosen [4, 9]: 12 | Test Sample Chosen [4, 10]: 14 | C Chosen (Bitterness of Caffeine; [6]): 29 | Test Sample Chosen (Bitterness of Caffeine; [7]): 10 | C Chosen (Bitterness of Ginseng; [6]): 26 | Test Sample Chosen (Bitterness of Ginseng; [7]): 13 | C Chosen (Bitterness of Green Tea; [11]): 28 | C Chosen (Bitterness of Green Tea; [12]): 26 | Test Sample Chosen (Bitterness of Green Tea; [11]): 11 | Test Sample Chosen (Bitterness of Green Tea; [12]): 13 | C Chosen ([5]; panelists choosing comparative sample C as highest bitterness, sample S1: TM1 50 ppm + guaifenesin 24 mM in water vs C): 32 | Test Sample Chosen ([5]; panelists choosing test sample as highest bitterness, sample S1: TM1 50 ppm + guaifenesin 24 mM in water vs C (guaifenesin 24 mM)): 7 | C Chosen (Bitterness of Saccharin; [6]): 24 | Test Sample Chosen (Bitterness of Saccharin; [7]): 9
